Source: US20180164317A1, “METHOD FOR STRATIFICATION OF MELANOMA PATIENTS BY DETERMINATION OF OXYGEN CONSUMPTION, PPARGC1A, PPARGC1B AND MITF LEVELS” (Bayer Pharma Aktiengesellschaft, priority 2015, published 2018)

Experiments:
[1] = test system: melanoma cell lines (G-361, CHL-1, RPMI-7951, SK-MEL-2); experiment: Basal OCR, marker positive versus negative melanoma cell lines, XF96 analyzer; assay type: cell-based, human; settings: 1 μM, 20 h treatment
Description: (§1) The OCR in G-361, CHL-1, RPMI-7951 and SK-MEL-2 melanoma cells was measured using the XF96 extracellular flux analyzer (Seahorse Bioscience) under standard conditions and after pre-incubation with 1 μM BAY 123 or JQ1 inhibitor for 20 h. Baseline mitochondrial function and mitochondrial stress response were measured by OCR using the XF Mito Stress Test Kit with an XF96 extracellular flux analyzer (Seahorse Bioscience). […] The drug injection ports of the XF96 Assay Cartridge were loaded with assay reagents at a final concentration of 1 μM oligomycin (ATP synthase inhibitor), 0.5 μM FCCP (ionophore and mitochondrial uncoupler which disrupts proton gradient and ATP synthesis), 1 μM Rotenone (mitochondrial complex I inhibitor) and 1 μM Antimycin A (mitochondrial complex III inhibitor).
Briefly, cells treated with 1 μM BAY 123 or JQ1 inhibitor for 20 h were seeded in quadruplicate at equal densities (20,000-30,000 cells/well) into XF96 tissue culture plates (Seahorse Bioscience). […] OCR was measured over time at baseline and following consecutive injections of 1 μM Oligomycin, 0.5 μM FCCP and a mix of 1 μM Rotenone+1 μM Antimycin A. The basal mitochondrial OCR was calculated. […] To this end, the cells were stained using Cyquant (Life technologies) and fluorescence measurements were made using a microplate reader with excitation at 485 nm and emission detection at 530 nm [Tecan].

SK-MEL-2 [2] = experiment: Basal oxygen consumption rate (OCR), XF96 extracellular flux analyzer; assay type: cell-based, human; settings: SK-MEL-2 cells; 1 μM, 20 h pre-incubation; FIG. 4
Description: as §1
(§2) Briefly, cells treated with 1 μM BAY 123 or JQ1 inhibitor for 20 h were seeded in quadruplicate at equal densities (20,000-30,000 cells/well) into XF96 tissue culture plates (Seahorse Bioscience). Cell culture medium was changed 12 hours after cell seeding into unbuffered DMEM (8.3 g/l DMEM [Sigma], 2 mM Glutamax [Invitrogen] 5 mM Glucose [Sigma], 1.85 g/l NaCl [Sigma], adjusted to pH 7.4 with NaOH). Real-time measurements of OCR in […] in culture medium were conducted. OCR was measured over time at baseline and following consecutive injections of 1 μM Oligomycin, 0.5 μM FCCP and a mix of 1 μM Rotenone+1 μM Antimycin A. The basal mitochondrial OCR was calculated. The OCR values were normalized to cell numbers plated. To this end, the cells were stained using Cyquant (Life technologies) and fluorescence measurements were made using a microplate reader with excitation at 485 nm and emission detection at 530 nm [Tecan].

CHL-1 [3] = experiment: as above; assay type: cell-based, human; settings: CHL-1 cells; 1 μM, 20 h pre-incubation; FIG. 4
Description: as §1, §2

G-361 [4] = experiment: as above; assay type: cell-based, human; settings: G-361 cells; 1 μM, 20 h pre-incubation; FIG. 4
Description: as §1, §2

COLO-792 [5] = experiment: as above; assay type: cell-based, human; settings: COLO-792 cells; FIG. 4
COLO-792 [6] = experiment: GI50 determination, cell viability (Alamar Blue or Cell Titer Glo); assay type: cell-based; settings: Homo sapiens; COLO-792 cells; cell viability measured at days 3, 5 and 7; triplicate experiments
Description: (§3) COLO-792, SK-MEL-2, SK-MEL-28, IPC-298 and MEL-HO cells were cultured in RPMI media supplemented with 10% heat-inactivated and filtered FCS (hFCS). CHL-1, Hs852.T, G-361, RPMI-7951 and A-431 cells were cultured in DMEM media supplemented with 10% hFCS. HMCB cells were grown in MEM Earle's media containing 10% hFCS, 1 mM NaPyruvate, non-essential amino acids and 1 mM HEPES. Penicillin (at 50 I.U./mL), streptomycin (at 50 μg/mL), and L-glutamine (at 2 mM) or stable glutamine (supplied with the media) were additional ingredients in all culture media. All cells were grown in an incubator at 37° C. with 5% carbon dioxide.
(§4) Cells were counted and distributed to 96-well plates, with 1000-5000 cells per well. Each plate also contained wells with media alone for background measurements. Appropriate dilutions of BAY 123 or JQ1 were made in media in a titration series. When adherent cells were fully attached, media was removed and replaced with media containing BAY 123, JQ1, or DMSO as a control. Alternatively, appropriate volumes of BAY 123, JQ1 or DMSO were added to media using a dispenser (HP D300, Tecan).
(§5) Cell viability was measured at days 3, 5, and 7, with Alamar Blue (LifeTechnologies) staining and fluorescence detection (excitation 530nm, emission 590nm) in a microplate reader. Alternatively, Cell Titer Glo (Promega) was used, followed by luminescence detection. GI50 values were calculated from triplicate experiments using GraphPad prism software, using curves from plots of fluorescence or luminescence intensity vs. BAY 123 or JQ1 concentration in each cell line. […] Cell lines with a GI50 below 600 nM were defined as sensitive to BET inhibition.

A-431 = experiment: as above; assay type: cell-based; settings: Homo sapiens; A-431 cells; cell viability measured at days 3, 5 and 7; triplicate experiments
Description: as §3, §4, §5

SK-MEL-2 [7] = experiment: as above; assay type: cell-based; settings: Homo sapiens; SK-MEL-2 cells; cell viability measured at days 3, 5 and 7; triplicate experiments
Description: as §3, §4, §5

SK-MEL-28 = experiment: as above; assay type: cell-based; settings: Homo sapiens; SK-MEL-28 cells; cell viability measured at days 3, 5 and 7; triplicate experiments
Description: as §3, §4, §5

MEL-HO = experiment: as above; assay type: cell-based; settings: Homo sapiens; MEL-HO cells; cell viability measured at days 3, 5 and 7; triplicate experiments
Description: as §3, §4, §5

RPMI-7951 = experiment: as above; assay type: cell-based; settings: Homo sapiens; RPMI-7951 cells; cell viability measured at days 3, 5 and 7; triplicate experiments
Description: as §3, §4, §5

CHL-1 [8] = experiment: as above; assay type: cell-based; settings: Homo sapiens; CHL-1 cells; cell viability measured at days 3, 5 and 7; triplicate experiments
Description: as §3, §4, §5

HMCB = experiment: as above; assay type: cell-based; settings: Homo sapiens; HMCB cells; cell viability measured at days 3, 5 and 7; triplicate experiments
Description: as §3, §4, §5

Hs 852.T = experiment: as above; assay type: cell-based; settings: Homo sapiens; Hs 852.T cells; cell viability measured at days 3, 5 and 7; triplicate experiments
Description: as §3, §4, §5

G-361 [9] = experiment: as above; assay type: cell-based; settings: Homo sapiens; G-361 cells; cell viability measured at days 3, 5 and 7; triplicate experiments
Description: as §3, §4, §5

IPC-298 = experiment: as above; assay type: cell-based; settings: Homo sapiens; IPC-298 cells; cell viability measured at days 3, 5 and 7; triplicate experiments
Description: as §3, §4, §5

## Cc1sc2c(c1C)C(c1ccc(Cl)cc1)=NC(CC(=O)OC(C)(C)C)c1nnc(C)n1-2 (racemic) [JQ1, [(R,S)-4-(4-Chlorophenyl)-2,3,9-trimethyl-6H-1-thia-5,7,8,9a-tetraaza-cyclopenta[e]azulen-6-yl]-acetic acid tert-butyl ester]
[1]
  decrease of basal OCR in PPARGC1A, PPARGC1B, MITF positive melanoma (G-361, CHL-1) compared to negative melanoma cell lines (RPMI-7951, SK-MEL-2): decreased more dramatically
SK-MEL-2 [2]
  basal OCR with versus without treatment: Reduction of basal OCR
CHL-1 [3]
  basal OCR with versus without treatment: Reduction of basal OCR
G-361 [4]
  basal OCR with versus without treatment: Reduction of basal OCR
COLO-792 [5]
  basal OCR with versus without treatment: Reduction of basal OCR
COLO-792 [6]
  GI50: 50 nM
A-431
  GI50: 720 nM
SK-MEL-2 [7]
  GI50: > 20000 nM
SK-MEL-28
  GI50: 1760 nM
MEL-HO
  GI50: 190 nM
RPMI-7951
  GI50: 1460 nM
CHL-1 [8]
  GI50: 60 nM
HMCB
  GI50: 330 nM
Hs 852.T
  GI50: 7570 nM
G-361 [9]
  GI50: 240 nM
IPC-298
  GI50: 60 nM

## CNC(=O)N1N=C(c2ccc(N3CCN(C)CC3)cc2)c2cc(OC)c(OC)cc2C[C@@H]1C [BAY 123, (4S)-7,8-dimethoxy-N,4-dimethyl-1-[4-(4-methylpiperazin-1-yl)phenyl]-4,5-dihydro-3H-2,3-benzodiazepine-3-carboxamide]
[1]
  decrease of basal OCR in PPARGC1A, PPARGC1B, MITF positive melanoma (G-361, CHL-1) compared to negative melanoma cell lines (RPMI-7951, SK-MEL-2): decreased more dramatically
SK-MEL-2 [2]
  basal OCR with versus without treatment: Reduction of basal OCR
CHL-1 [3]
  basal OCR with versus without treatment: Reduction of basal OCR
G-361 [4]
  basal OCR with versus without treatment: Reduction of basal OCR
COLO-792 [5]
  basal OCR with versus without treatment: Reduction of basal OCR
COLO-792 [6]
  GI50: 80 nM
A-431
  GI50: 930 nM
SK-MEL-2 [7]
  GI50: > 20000 nM
SK-MEL-28
  GI50: 1260 nM
MEL-HO
  GI50: 470 nM
RPMI-7951
  GI50: 2180 nM
CHL-1 [8]
  GI50: 70 nM
HMCB
  GI50: 570 nM
Hs 852.T
  GI50: 4440 nM
G-361 [9]
  GI50: 250 nM
IPC-298
  GI50: 150 nM
